pIC50: −log10 of the molar value. Blank lines part the entries; values can stand above or below the compound they belong to.
Target: T1, Kv1.3 potassium channel (Homo sapiens, UniProt P22001)
T1 construct: expressed in transfected cells
Assay: Kv1.3 potassium channel blocker activity, automated whole-cell patch clamp (Patchliner)
Type: cell-based
Settings: CHO-K1 cells stably expressing Kv1.3; whole cell current inhibition; read-out: Kv1.3_IC50
Method: The assay described below is used to evaluate the disclosed compound's activities as Kv1.3 potassium channel blockers.
CHO-K1 cells stably expressing Kv1.3 were grown in DMEM containing 10% heat-inactivated FBS, 1 mM Sodium Pyruvate, 2 mM L-Glutamine and G418 (500 μg/ml).
All compounds were dissolved in DMSO at 30 mM.
The currents were evoked by applying 100 ms depolarizing pulses from −90 mV (holding potential) to +40 mV were applied with 0.1 Hz frequency. […] 10 second breaks were used between pulse trains (see Table A below).
Data were sampled at 10 kHz without filtering. Passive leak currents were subtracted online using a P/4 procedure (HEKA Elektronik Dr. Schulze GmbH). […] Total compound incubation time before the next pulse train was not longer than 10 seconds. Peak current inhibition was observed during compound equilibration.

T1 sequence (P22001 whole entry): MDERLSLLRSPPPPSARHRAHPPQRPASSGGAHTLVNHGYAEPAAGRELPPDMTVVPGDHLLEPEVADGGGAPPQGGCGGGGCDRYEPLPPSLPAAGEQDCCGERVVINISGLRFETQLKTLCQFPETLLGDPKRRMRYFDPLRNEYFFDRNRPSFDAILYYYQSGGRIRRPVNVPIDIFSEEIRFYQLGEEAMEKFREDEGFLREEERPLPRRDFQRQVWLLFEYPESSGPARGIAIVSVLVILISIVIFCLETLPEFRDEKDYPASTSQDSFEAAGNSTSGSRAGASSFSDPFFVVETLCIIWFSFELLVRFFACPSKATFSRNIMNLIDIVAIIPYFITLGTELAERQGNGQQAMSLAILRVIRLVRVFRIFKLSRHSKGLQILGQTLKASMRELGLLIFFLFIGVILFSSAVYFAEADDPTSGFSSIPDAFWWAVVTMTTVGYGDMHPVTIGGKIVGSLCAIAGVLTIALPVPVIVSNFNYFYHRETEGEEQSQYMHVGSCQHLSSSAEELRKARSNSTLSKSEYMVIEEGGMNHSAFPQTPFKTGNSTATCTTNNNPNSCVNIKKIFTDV

- pIC50: > 6.30
SMILES: N[C@@H](c1c(O)cc(Cl)c(Cl)c1F)C1CCN(C(=O)c2c[nH]c(=O)c(Cl)c2)CC1 [Compound 266, 5-[4-[(R)-amino(3,4-dichloro-2-fluoro-6-hydroxyphenyl)methyl]piperidine-1-carbonyl]-3-chloro-1H-pyridin-2-one Trifluoroacetic Acid]

- pIC50: > 5.00
SMILES: N[C@@H](c1cc(Cl)c(Cl)cc1O)[C@@H]1CCCN(C(=O)[C@H](O)CO)CC1 (single isomer, unassigned; isomer 1) [Compound 333]

- pIC50: > 5.00
SMILES: CN[C@H](c1cc(Cl)c(Cl)cc1O)C1CCN(C(=O)[C@H](O)CO)CC1 (single isomer, unassigned) [Compound 336]

- pIC50: > 6.30
SMILES: Cc1cc(O)c([C@H](N)C2CCN(C(=O)c3ccc4[nH]c(=O)[nH]c4c3)CC2)cc1Cl [Compound 256, 5-[4-[(R)-amino (5-chloro-2-hydroxy-4-methylphenyl)methyl]piperidine-1-carbonyl]-1,3-dihydro-1,3-benzodiazol-2-one trifluoroacetic acid]

- pIC50: > 5.00
SMILES: N[C@@H](c1cc(Cl)c(Cl)cc1O)[C@H]1CCN(C(=O)[C@H](O)CO)C1 (single isomer, unassigned; isomer 2) [Compound 312]

- pIC50: > 5.00
SMILES: Cc1ccc([C@H](N)C2CCN(C(=O)[C@H](O)CO)CC2)c(O)c1 [Compound 294, (2R)-1-[4-[(R)-amino(2-hydroxy-4-methylphenyl)methyl]piperidin-1-yl]-2,3-dihydroxypropan-1-one Trifluoroacetic Acid]

Continued, compound first:

SMILES: N[C@@H](c1cc(Cl)c(Cl)cc1O)[C@H]1CCC(=O)NC1 (single isomer, unassigned; diastereoisomer 1) [Compound 38, 5-(amino(4,5-dichloro-2-hydroxyphenyl)methyl)piperidin-2-one trifluoroacetic acid diastereoisomer 1]
- pIC50: > 5.00

SMILES: O=S(=O)([C@@H]1CCNC1)N1CCC([C@H](O)c2cc(Cl)c(Cl)cc2O)CC1 (single isomer, unassigned; isomer 2) [Compound 125, 4,5-dichloro-2-(hydroxy(1-(pyrrolidin-3-ylsulfonyl)piperidin-4-yl)methyl)phenol Isomer 2]
- pIC50: > 5.00

SMILES: Cc1ccc(S(=O)(=O)N2CCC(C(N)c3cc(Cl)c(Cl)cc3O)CC2)cc1 (stereo not drawn) [Compound 35, 2-(amino(1-tosylpiperidin-4-yl)methyl)-4,5-dichlorophenol]
- pIC50: > 5.00

SMILES: O=C1CCCN1C(c1cc(Cl)c(Cl)cc1O)C1CCNCC1 (stereo not drawn) [Compound 29, 1-((4,5-dichloro-2-hydroxyphenyl)(piperidin-4-yl)methyl)pyrrolidin-2-one Trifluoroacetic Acid]
- pIC50: > 5.00

SMILES: CC1(C)C[C@@H]([C@H](N)c2cc(Cl)c(Cl)cc2O)CCN1 (single isomer, unassigned; diastereoisomer 1) [Compound 72, 2-(amino(2,2-dimethylpiperidin-4-yl)methyl)-4,5-dichlorophenol Trifluoroacetic Acid Diastereoisomer 1]
- pIC50: > 4.52

SMILES: O=C(NC(c1cc(Cl)c(Cl)cc1O)C1CCNCC1)C(F)(F)F (stereo not drawn) [Compound 22, N-((4,5-dichloro-2-hydroxyphenyl)(piperidin-4-yl)methyl)-2,2,2-trifluoroacetamide]
- pIC50: > 5.00

SMILES: CCNC(c1cc(Cl)c(Cl)cc1O)C1CCN(C(=O)C(O)CO)CC1 (stereo not drawn) [Compound 182, 1-[4-[(4,5-dichloro-2-hydroxyphenyl)(ethylamino)methyl]piperidin-1-yl]-2,3-dihydroxypropan-1-one Trifluoroacetic Acid]
- pIC50: > 5.00

SMILES: C[C@](O)(c1cc(Cl)c(Cl)cc1O)C1CCNCC1 (single isomer, unassigned; isomer 2) [Compound 26, 4,5-dichloro-2-(1-hydroxy-1-(piperidin-4-yl)ethyl)phenol Isomer 2]
- pIC50: > 5.00

SMILES: CN(C)C(=O)CN1CCC(C(N)c2cc(Cl)c(Cl)cc2O)CC1 (stereo not drawn) [Compound 55, 2-[4-[amino(4,5-dichloro-2-hydroxyphenyl)methyl]piperidin-1-yl]-N,N-dimethylacetamide]
- pIC50: > 5.00
